Patent publication US20240391928A1, “COMPOSITIONS FOR THE TREATMENT OF FOOD AND CHEMICAL ADDICTION AND METHODS OF MAKING AND USING SAME” (Duke University, priority 2021, published 2024)

Key:
Format in all cases: cell-based
[1] = target: hGHSR1a^WT (Homo sapiens, UniProt Q92847); assay: Gαq-dependent intracellular Ca2+ mobilization (iCa2+, miAeq); set-up: HEK293/T (transient); HEK293S Gαq knockout (transient, NanoBiT Gαq); details: for Calcium signaling ECmax (%) / EC50: secondary assay of HTS hits; for Calcium signaling ECmax (%): normalized to L585; for EC50: read-out: Calcium signaling EC50; for inhibition of iCa2+ evoked by N8279, ghrelin or L585: 30 minute antagonist pretreatment
Experimental: Gαq-Dependent Intracellular Ca^2+ Mobilization. […] Cells were split into and seeded into 10 cm dishes without antibiotic selection and grown to confluency overnight. The next morning, cells were serum starved in 10 mL of clear opti-MEM (supplemented with L-glutamine and HEPES; Gibco, Waltham, MA) for 3-4 hours in a 37° C. incubator with 5% CO2. Then, 25 μL of coelenterazine H (NanoLight Technology, Pinetop, AZ) was added to each 10 mL dish and incubated for another 1-2 hours. For antagonist assays, test compounds were either added directly to the media in 10 cm dishes, or cells were collected by gentle washing/trituration and plated onto white, clear-bottomed 96-well plates for 30 minutes—1 hour. Once the coelenterazine H (or antagonist) incubation was complete, cells were harvested from the 10 cm dish by gentle washing/trituration and collected in a 15 mL conical tube. Cell suspensions were then immediately subjected to assay by injecting cells onto a white, clear-bottomed 96-well plate containing 2× test compounds. Luminescence was read without delay and for 10 seconds per well. To control for cell number variability, cells were lysed in 2× lysis buffer (100 mM CaCl2+0.2% Triton-X) immediately following the assay. The max ligand-induced response (Ca^2+ mobilization: net-miAeq) over 10 seconds was normalized by dividing the ligand-induced luminescence counts (L-miAeq) by the ligand-induced luminescence counts (L-MiAeq) plus the luminescence measured upon cell lysis (Lysis-miAeq). Relative, lysis-normalized data were then normalized to the appropriate control/reference condition.
(§1) For experiments with WT and Gt KO HEK293/S cells, […] of hGHSR1a^WT, 10 μg of miAEQ, and 2.5 μg of pcDNA3.1 was transiently transfected into 10 cm dishes and incubated overnight. […] Twenty-four hours later, experiments proceeded in accordance with the procedures described above. To control for any possible kinetic differences in genetically modified cell lines or GHSR1a variants, the average ligand-induced response over 10 seconds was calculated, then normalized by dividing the L-miAeq by the L-miAeq plus the Lysis-miAeq and normalized to the appropriate control/reference condition.

[2] = system: human hGHSR1a-vasopressin receptor 2 tail chimera; assay: β-arr2^GFP translocation, compound screening (U2OS); details: secondary assay of HTS hits; for Beta-arrestin translocation ECmax (%): normalized to L585; for EC50: read-out: Beta-arrestin translocation EC50
[3] = target: T1, hGHSR1a^WT in Gαq/11 KO HEK293/S cells (Homo sapiens, UniProt Q92847); assay: iCa2+ in Gαq/11 KO HEK293/S cells; details: 10 μM ligand
T1 construct: expressed in transfected cells; SRF-RE reporter); HEK293/S Gαq/11 KO and parental WT (iCa2+)
Experimental: as §1

Chain of hGHSR1a^WT (Q92847 whole entry): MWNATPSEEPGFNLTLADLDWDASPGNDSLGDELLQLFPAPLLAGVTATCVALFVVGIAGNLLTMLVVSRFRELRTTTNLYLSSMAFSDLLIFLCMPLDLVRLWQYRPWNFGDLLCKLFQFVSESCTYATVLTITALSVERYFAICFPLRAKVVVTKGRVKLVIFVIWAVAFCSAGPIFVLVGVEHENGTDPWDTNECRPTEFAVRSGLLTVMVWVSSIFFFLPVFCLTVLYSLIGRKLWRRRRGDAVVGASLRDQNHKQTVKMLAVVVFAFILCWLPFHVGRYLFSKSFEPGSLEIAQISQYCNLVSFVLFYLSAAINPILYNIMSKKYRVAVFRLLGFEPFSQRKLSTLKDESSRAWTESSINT
T1 sequence (Q92847 whole entry): as above

Compound | Calcium signaling ECmax (%) [1] [%] | EC50 [1] [µM] | Beta-arrestin translocation ECmax (%) [2] [%] | EC50 [2] [µM] | inhibition of iCa2+ evoked by N8279, ghrelin or L585 [1] | activity of re-synthesized molecule in words ([1]; re-synthesized material) | potency and efficacy relative to L585 in words ([1]; screening sample) | agonist-induced iCa2+ in Gαq/11 KO cells [3]
CCCOc1ccc(C2c3c(oc4cc(C)c(C)cc4c3=O)C(=O)N2CCCN(C)C)cc1OCC (stereo not drawn) [MLS000115621] | 126 | 2.38 | 0 |  |  |  |  | 
COc1ccc(C2c3c(oc4ccc(F)cc4c3=O)C(=O)N2Cc2ccc3c(c2)OCO3)cc1 (stereo not drawn) [NCGC00101634] | 61 | 7.71 | 10 | 0.426 |  |  |  | 
CCOc1ccc(C2c3c(oc4ccc(C)cc4c3=O)C(=O)N2CCCN2CCOCC2)cc1 (stereo not drawn) [NCGC00141056] | 68 | 0.938 | 19 | 0.00219 |  |  |  | 
CCCOc1ccc(C2c3c(oc4ccccc4c3=O)C(=O)N2c2ccc(C)cn2)cc1OCC (stereo not drawn) [NCGC00101673] | 115 | 32.4 | 49 | 2.4 |  |  |  | 
Cc1ccc2oc3c(c(=O)c2c1)C(c1ccccc1F)N(CCCN1CCOCC1)C3=O (stereo not drawn) [NCGC00101911] | 44 | 0.00226 |  |  |  |  |  | 
O=C1c2oc3ccc(F)cc3c(=O)c2C(c2cccc([N+](=O)[O-])c2)N1CCCN1CCOCC1 (stereo not drawn) [NCGC00119778] |  | ~62000 |  |  |  |  |  | 
COc1cccc(C2c3c(oc4ccc(C)cc4c3=O)C(=O)N2CCCN2CCOCC2)c1OC (stereo not drawn) [NCGC00136166] |  | ~296 | 11 | 0.0716 |  |  |  | 
CCCCOCCCn1c(N)c(C(=O)OC(C)COC)c2nc3ccccc3nc21 (stereo not drawn) [MLS000036469] | 50 | 0.00306 |  | 147 |  |  |  | 
CCOc1ccc(C2c3c(oc4ccc(C)cc4c3=O)C(=O)N2CCCN(C)C)cc1 (stereo not drawn) [NCGC00141058] | 97 | 1.29 | 142 | 2.03 |  |  |  | 
Cc1ccc2oc3c(c(=O)c2c1)C(c1ccccc1F)N(CCCN(C)C)C3=O (stereo not drawn) [NCGC00101939] | 121 | 4.9 | 20 | 0.0116 |  |  |  | 
CSc1ccc(C2c3c(oc4ccccc4c3=O)C(=O)N2CCCN2CCOCC2)cc1 (stereo not drawn) [NCGC00101907] | 40 | 3.35 | 39 | 0.558 |  |  |  | 
JMV2959 [reference compound] |  |  |  |  | competitively inhibited |  |  | 
COc1cccc(C2c3c(oc4ccccc4c3=O)C(=O)N2CCCN2CCOCC2)c1 (stereo not drawn) [MLS000115599] | 71 | 20.4 |  |  |  |  |  | 
CCOc1ccc(C2c3c(oc4ccc(C)cc4c3=O)C(=O)N2CCCN(C)C)cc1OC (stereo not drawn) [NCGC00141956] | 105 | 0.332 | 107 | 2.31 |  | could not be confirmed | sub-μM potency and full efficacy | 
Cc1ccc2oc3c(c(=O)c2c1)C(c1ccc([N+](=O)[O-])cc1)N(CCCN1CCOCC1)C3=O (stereo not drawn) [NCGC00119776] | 125 | 12 | 26 | 0.0499 |  |  |  | 
COc1cc(C2c3c(oc4cc(C)c(C)cc4c3=O)C(=O)N2CCCN2CCOCC2)ccc1O (stereo not drawn) [NCGC00101915] |  | ~19200 | 368 | 13.6 |  |  |  | 
Cc1ccc2oc3c(c(=O)c2c1)C(c1ccc(O)cc1)N(Cc1ccc2c(c1)OCO2)C3=O (stereo not drawn) [NCGC00101948] |  | ~11200 |  |  |  |  |  | 
CCCCOc1ccc(C2c3c(oc4ccc(C)cc4c3=O)C(=O)N2CCCN(C)C)cc1OCC (stereo not drawn) [NCGC00101941] |  | ~26900 | 83 | 0.095 |  |  |  | 
C[C@@H](O)CNC(C)(C)CC(=O)N[C@@H]1CCc2ccccc2N(Cc2ccc(-c3ccccc3-c3nn[nH]n3)cc2)C1=O [Example L626.585, reference compound] | 100 | 0.0146 | 100 | 0.024 |  |  |  | abolished

Compound | Calcium signaling ECmax (%) [1] [%] | EC50 [1] [µM] | Beta-arrestin translocation ECmax (%) [2] [%] | EC50 [2] [µM] | inhibition of iCa2+ evoked by N8279, ghrelin or L585 [1] | activity of re-synthesized molecule in words ([1]; re-synthesized material) | potency and efficacy relative to L585 in words ([1]; screening sample) | agonist-induced iCa2+ in Gαq/11 KO cells [3]
CC(C)CCOc1cccc(C2c3c(oc4ccccc4c3=O)C(=O)N2CCCN2CCOCC2)c1 (stereo not drawn) [MLS000115603] | 48 | 0.00681 |  | ~4690 |  |  |  | 
CCCOc1cccc(C2c3c(oc4ccc(F)cc4c3=O)C(=O)N2CCCN2CCOCC2)c1 (stereo not drawn) [NCGC00101919] |  | ~1520 | 99 | 1.74 |  |  |  | 
CCOc1cc(C2c3c(oc4ccccc4c3=O)C(=O)N2Cc2ccc(OC)cc2)ccc1O (stereo not drawn) [NCGC00101920] |  | ~18500 | 9 | 0.0165 |  |  |  | 
O=C1c2oc3ccccc3c(=O)c2C(c2ccccc2F)N1Cc1ccc2c(c1)OCO2 (stereo not drawn) [NCGC00101942] | 57 |  | 12 | 0.528 |  |  |  | 
C=CCOc1ccc(C2c3c(oc4ccc(C)cc4c3=O)C(=O)N2CCCN2CCOCC2)cc1 (stereo not drawn) [NCGC00101909] |  | ~3020 | 64 | 0.254 |  |  |  | 
Cc1ccc2oc3c(c(=O)c2c1)C(c1cccc(O)c1)N(CCCN1CCOCC1)C3=O (stereo not drawn) [NCGC00101913] |  | ~18000 | 153 | 1.55 |  |  |  | 
Cc1ccc2oc3c(c(=O)c2c1)C(c1ccc(O)cc1)N(CCCN(C)C)C3=O (stereo not drawn) [NCGC00101937] | 112 | 2.78 | 49 | 0.855 |  |  |  | 
COc1ccc(C2c3c(oc4ccc(C)cc4c3=O)C(=O)N2CCCN2CCOCC2)cc1OC (stereo not drawn) [NCGC00141954] | 105 | 0.714 | 196 | 5.33 |  |  |  | 
Cc1ccc2oc3c(c(=O)c2c1)C(c1cccc(Cl)c1)N(CCCN1CCOCC1)C3=O (stereo not drawn) [MLS000103531] | 8 | 0.00032 | 204 | 6.3 |  |  |  | 
Cc1cc(C)c2c(=O)c3c(oc2c1)C(=O)N(Cc1ccco1)C3c1ccc(F)cc1 (stereo not drawn) [NCGC00116418] |  | ~3010 |  |  |  |  |  | 
CCOc1cccc(C2c3c(oc4ccc(F)cc4c3=O)C(=O)N2CCOC)c1 (stereo not drawn) [NCGC00101945] | 63 | 1.2 | 7 | 2 |  |  |  | 
CCCOc1ccc(C2c3c(oc4cc(C)c(C)cc4c3=O)C(=O)N2CCCN2CCOCC2)cc1 (stereo not drawn) [MLS000115606] |  |  | 24 | 0.0312 |  |  |  | 
CCCOc1cccc(C2c3c(oc4cc(C)c(C)cc4c3=O)C(=O)N2CCCN2CCOCC2)c1 (stereo not drawn) [NCGC00101917] | 39 | 0.0043 | 20 | 0.00424 |  |  |  | 
CC(C)c1ccc(C2c3c(oc4ccc(Cl)cc4c3=O)C(=O)N2CCCN2CCOCC2)cc1 (stereo not drawn) [NCGC00119774] | 75 | 5.62 | 163 | 3.05 |  |  |  | 
Cc1nc2ccc(Oc3ccc(F)cc3)cc2c(=O)n1C[C@H]1CCCN(C(C)C)C1 [YIL781, reference compound] |  |  |  |  | competitively inhibited |  |  | 
COc1ccc(OC)c(C2c3c(oc4ccc(C)cc4c3=O)C(=O)N2CCCN(C)C)c1 (stereo not drawn) [NCGC00136184] | 129 | 13.1 | 24 | 2.33 |  |  |  | 
COc1cccc(C2c3c(oc4ccccc4c3=O)C(=O)N2CCCN2CCOCC2)c1 (stereo not drawn) [MLS002585710] | 56 | 0.0176 |  |  |  |  |  | 
CCOc1ccc(C2c3c(oc4ccccc4c3=O)C(=O)N2CCCN2CCOCC2)cc1OCC (stereo not drawn) [MLS000115604] | 51 | 0.00804 | 38 | 0.00298 |  |  |  | 
